#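 All cell lines were grown in 96-well plates and treated with compound for 48 hours. The concentration for 50% growth inhibition is given as GI50.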 Calls of active or inactive are those of the source. Cut-off read from the data, not from the text of the source: active = GI50 up to about 1.1 µM and inactive = higher.
# Tests used:
# Test in all cases: inhibition of tumour cell growth, NCI panel, 48 h
# [1] = test system: A498
# [2] = test system: ACHN
# [3] = test system: CCRF-CEM
# [4] = test system: HCC 2998
# [5] = test system: HCT-15
# [6] = test system: HL-60
# [7] = test system: HT-29
# [8] = test system: IGROV-1
# [9] = test system: K562
# [10] = test system: LOX IMVI
# [11] = test system: M14
# [12] = test system: NCI-H460
# [13] = test system: NCI-H522
# [14] = test system: OVCAR-3
# [15] = test system: OVCAR-5
# [16] = test system: OVCAR-8
# [17] = test system: RXF 393
# [18] = test system: SF-268
# [19] = test system: SF-295
# [20] = test system: SK-MEL-28
# [21] = test system: SK-MEL-5
# [22] = test system: SK-OV-3
# [23] = test system: SN12C
# [24] = test system: SNB-19
# [25] = test system: SNB-75
# [26] = test system: SR
# [27] = test system: SW-620
# [28] = test system: TK-10
# [29] = test system: U-251
# [30] = test system: UACC-257
# [31] = test system: UACC-62
# [32] = test system: UO-31
# [33] = test system: 786-0
# [34] = test system: A549
# [35] = test system: CAKI-1
# [36] = test system: COLO 205
# [37] = test system: DU-145
# [38] = test system: EKVX
# [39] = test system: HCT-116
# [40] = test system: HOP-62
# [41] = test system: HOP-92
# [42] = test system: Hs-578T
# [43] = test system: KM12
# [44] = test system: MCF7
# [45] = test system: MDA-MB-231
# [46] = test system: MDA-MB-435
# [47] = test system: MDA-N
# [48] = test system: MOLT-4
# [49] = test system: Malme-3M
# [50] = test system: NCI-H226
# [51] = test system: NCI-H23
# [52] = test system: NCI/ADR-RES
# [53] = test system: OVCAR-4
# [54] = test system: PC-3
# [55] = test system: RPMI-8226
# [56] = test system: SF-539
# [57] = test system: SK-MEL-2
# [58] = test system: T47D
smiles,measurement,setting,value
O=C(N/N=C/c1cc(Cl)cc(Cl)c1O)c1ccccc1O,GI50,[1],7.5 µM (inactive)
same,GI50,[2],0.447 µM (active)
same,GI50,[3],0.279 µM (active)
same,GI50,[4],2.17 µM (inactive)
same,GI50,[5],0.46 µM
same,GI50,[6],0.221 µM (active)
same,GI50,[7],3.65 µM (inactive)
same,GI50,[8],2.62 µM (inactive)
same,GI50,[9],0.977 µM (active)
same,GI50,[10],0.398 µM (active)
same,GI50,[11],0.847 µM (active)
same,GI50,[12],0.656 µM (active)
same,GI50,[13],0.441 µM (active)
same,GI50,[14],0.305 µM (active)
same,GI50,[15],2.08 µM (inactive)
same,GI50,[16],0.198 µM (active)
same,GI50,[17],0.946 µM (active)
same,GI50,[18],0.48 µM (active)
same,GI50,[19],0.721 µM (active)
same,GI50,[20],1.31 µM (inactive)
same,GI50,[21],1.57 µM (inactive)
same,GI50,[22],0.687 µM (active)
same,GI50,[23],2.36 µM (inactive)
same,GI50,[24],3.18 µM (inactive)
same,GI50,[25],2.44 µM (inactive)
same,GI50,[26],0.388 µM (active)
same,GI50,[27],0.601 µM (active)
same,GI50,[28],2.23 µM (inactive)
same,GI50,[29],0.849 µM (active)
same,GI50,[30],2.04 µM (inactive)
same,GI50,[31],0.323 µM (active)
same,GI50,[32],2.88 µM (inactive)
CC(C)c1c(O[Si](C(C)C)(C(C)C)C(C)C)cc2c(c1O)CC[C@H]1C(C)(C)CCC[C@]21C,GI50,[33],> 100 µM (inactive)
same,GI50,[1],> 100 µM (inactive)
same,GI50,[34],> 100 µM (inactive)
same,GI50,[2],> 100 µM (inactive)
same,GI50,[35],> 100 µM (inactive)
same,GI50,[3],49.5 µM (inactive)
same,GI50,[36],> 100 µM (inactive)
same,GI50,[37],> 100 µM (inactive)
same,GI50,[38],> 100 µM (inactive)
same,GI50,[39],> 100 µM (inactive)
same,GI50,[5],> 100 µM
same,GI50,[6],24.6 µM (inactive)
same,GI50,[40],> 100 µM (inactive)
same,GI50,[41],> 100 µM (inactive)
same,GI50,[7],> 100 µM (inactive)
same,GI50,[42],> 100 µM (inactive)
same,GI50,[8],> 100 µM (inactive)
same,GI50,[9],65.6 µM (inactive)
same,GI50,[43],> 100 µM (inactive)
same,GI50,[10],> 100 µM (inactive)
same,GI50,[11],> 100 µM (inactive)
same,GI50,[44],> 100 µM (inactive)
same,GI50,[45],> 100 µM (inactive)
same,GI50,[46],> 100 µM (inactive)
same,GI50,[47],> 100 µM (inactive)
same,GI50,[48],43.9 µM (inactive)
same,GI50,[49],> 100 µM (inactive)
same,GI50,[50],> 100 µM (inactive)
same,GI50,[51],97.5 µM (inactive)
same,GI50,[12],> 100 µM (inactive)
same,GI50,[13],47.2 µM (inactive)
same,GI50,[52],> 100 µM (inactive)
same,GI50,[14],> 100 µM (inactive)
same,GI50,[53],> 100 µM (inactive)
same,GI50,[15],> 100 µM (inactive)
same,GI50,[16],> 100 µM (inactive)
same,GI50,[54],> 100 µM (inactive)
same,GI50,[55],45.7 µM (inactive)
same,GI50,[17],> 100 µM (inactive)
same,GI50,[18],> 100 µM (inactive)
same,GI50,[19],> 100 µM (inactive)
same,GI50,[56],> 100 µM (inactive)
same,GI50,[20],> 100 µM (inactive)
same,GI50,[57],> 100 µM (inactive)
same,GI50,[21],> 100 µM (inactive)
same,GI50,[22],> 100 µM (inactive)
same,GI50,[23],> 100 µM (inactive)
same,GI50,[24],> 100 µM (inactive)
same,GI50,[25],50.6 µM (inactive)
same,GI50,[27],> 100 µM (inactive)
same,GI50,[28],6.12 µM (inactive)
same,GI50,[29],> 100 µM (inactive)
same,GI50,[30],> 100 µM (inactive)
same,GI50,[31],> 100 µM (inactive)
same,GI50,[32],> 100 µM (inactive)
C[C@@]1(O)C2CC3CC1(c1ccccc1)CC(/C3=N/O)/C2=N\O (stereo not given in full),GI50,[33],> 100 µM (inactive)
same,GI50,[1],> 100 µM (inactive)
same,GI50,[34],> 100 µM (inactive)
same,GI50,[2],> 100 µM (inactive)
same,GI50,[35],> 100 µM (inactive)
same,GI50,[3],> 100 µM (inactive)
same,GI50,[36],> 100 µM (inactive)
same,GI50,[37],> 100 µM (inactive)
same,GI50,[38],> 100 µM (inactive)
same,GI50,[4],> 100 µM (inactive)
same,GI50,[39],> 100 µM (inactive)
same,GI50,[5],> 100 µM
same,GI50,[6],> 100 µM (inactive)
same,GI50,[40],> 100 µM (inactive)
same,GI50,[41],> 100 µM (inactive)
same,GI50,[7],> 100 µM (inactive)
same,GI50,[8],> 100 µM (inactive)
same,GI50,[9],> 100 µM (inactive)
same,GI50,[43],> 100 µM (inactive)
same,GI50,[10],> 100 µM (inactive)
same,GI50,[11],> 100 µM (inactive)
same,GI50,[45],> 100 µM (inactive)
same,GI50,[46],> 100 µM (inactive)
same,GI50,[48],> 100 µM (inactive)
same,GI50,[49],> 100 µM (inactive)
same,GI50,[50],> 100 µM (inactive)
same,GI50,[51],> 100 µM (inactive)
same,GI50,[12],> 100 µM (inactive)
same,GI50,[13],> 100 µM (inactive)
same,GI50,[52],> 100 µM (inactive)
same,GI50,[14],> 100 µM (inactive)
same,GI50,[53],> 100 µM (inactive)
same,GI50,[15],> 100 µM (inactive)
same,GI50,[16],> 100 µM (inactive)
same,GI50,[54],> 100 µM (inactive)
same,GI50,[17],> 100 µM (inactive)
same,GI50,[18],> 100 µM (inactive)
same,GI50,[19],> 100 µM (inactive)
same,GI50,[56],> 100 µM (inactive)
same,GI50,[20],> 100 µM (inactive)
same,GI50,[57],> 100 µM (inactive)
same,GI50,[21],> 100 µM (inactive)
same,GI50,[22],> 100 µM (inactive)
same,GI50,[23],> 100 µM (inactive)
same,GI50,[24],> 100 µM (inactive)
same,GI50,[25],> 100 µM (inactive)
same,GI50,[26],> 100 µM (inactive)
same,GI50,[27],> 100 µM (inactive)
same,GI50,[58],> 100 µM (inactive)
same,GI50,[29],> 100 µM (inactive)
same,GI50,[30],> 100 µM (inactive)
same,GI50,[31],> 100 µM (inactive)
same,GI50,[32],> 100 µM (inactive)

# From ChEMBL document CHEMBL1201862, “PubChem BioAssay data set” (2004)
